Measured values from ChEMBL document CHEMBL1275532, “Potential for hepatitis C virus resistance to nitazoxanide or tizoxanide” (Antimicrob Agents Chemother, 2008).

Columns and labels:
[1] = Cytotoxicity against human NTZ-11 cell harboring HCV genotype 1b after 4 days by neutral red dye uptake assay; format: cell-based; details: NTZ-11 cells harboring HCV genotype 1b
[2] = Cytotoxicity against human RP7 cell harboring HCV genotype 1b after 4 days by neutral red dye uptake assay; format: cell-based; details: RP7 cells harboring HCV genotype 1b
[3] = Selectivity Index, ratio of CC50 for NTZ-11 cell harboring HCV genotype 1b to EC50 for HCV genotype 1b in NTZ-11 replicon cell
[4] = tested on: Hepatitis C virus; assay: Antiviral activity against HCV genotype 1b in NTZ-11 replicon cell after 4 days by blot hybridization analysis; format: functional, organism-based, Hepacivirus hominis; details: NTZ-11, 96 h
[5] = tested on: Hepatitis C virus; assay: Antiviral activity against HCV genotype 1b in TIZ-9 replicon cell after 4 days by blot hybridization analysis; format: functional, organism-based, Hepacivirus hominis; details: TIZ-9, 96 h
[6] = Selectivity Index, ratio of CC50 for TIZ-9 cell harboring HCV genotype 1b to EC50 for HCV genotype 1b in TIZ-9 replicon cell
[7] = tested on: Hepatitis C virus; assay: Antiviral activity against HCV genotype 1b in RP7 replicon cell after 4 days by blot hybridization analysis; format: functional, organism-based, Hepacivirus hominis; details: 96 h
[8] = Selectivity Index, ratio of CC50 for RP7 cell harboring HCV genotype 1b to EC50 for HCV genotype 1b in RP7 replicon cell
[9] = Cytotoxicity against human TIZ-9 cell harboring HCV genotype 1b after 4 days by neutral red dye uptake assay; format: cell-based; details: TIZ-9 cells harboring HCV genotype 1b
[10] = tested on: Hepatitis C virus; assay: Antiviral activity against HCV genotype 1b obtained from RP7 cells infected in Huh7.5 cell assessed as viral-induced colony formation efficiency at 1 uM after 10 to 14 days in presence of 125 ug/ml G418; format: functional, Hepacivirus hominis
[11] = tested on: Hepatitis C virus; assay: Antiviral activity against HCV genotype 1b obtained from NTZ-11 cells infected in Huh7.5 cell assessed as viral-induced colony formation efficiency at 10 uM after 10 to 14 days in presence of 125 ug/ml G418; format: functional, Hepacivirus hominis
[12] = tested on: Hepatitis C virus; assay: Antiviral activity against HCV genotype 1b obtained from TIZ-9 cells infected in Huh7.5 cell assessed as viral-induced colony formation efficiency at 1 uM after 10 to 14 days in presence of 125 ug/ml G418; format: functional, Hepacivirus hominis
[13] = tested on: Hepatitis C virus; assay: Antiviral activity against HCV genotype 1b obtained from NTZ-11 cells infected in Huh7.5 cell assessed as viral-induced colony formation efficiency at 1 uM after 10 to 14 days in presence of 125 ug/ml G418; format: functional, Hepacivirus hominis
[14] = tested on: Hepatitis C virus; assay: Antiviral activity against HCV genotype 1b obtained from RP7 cells infected in Huh7.5 cell assessed as viral-induced colony formation efficiency at 10 uM after 10 to 14 days in presence of 125 ug/ml G418; format: functional, Hepacivirus hominis
[15] = tested on: Hepatitis C virus; assay: Antiviral activity against HCV genotype 1b in replicon system; format: functional, organism-based, Hepacivirus hominis
[16] = tested on: Hepatitis C virus; assay: Antiviral activity against HCV genotype 1b obtained from TIZ-9 cells infected in Huh7.5 cell assessed as viral-induced colony formation efficiency at 10 uM after 10 to 14 days in presence of 125 ug/ml G418; format: functional, Hepacivirus hominis
[17] = tested on: Hepatitis C virus; assay: Antiviral activity against HCV genotype 1a in replicon system; format: functional, organism-based, Hepacivirus hominis; details: subtype 1a

Structure (SMILES)	CC50 at 96 h [1] [µM]	CC50 at 96 h [2] [µM]	Ratio CC50/EC50 [3]	EC50 [4] [µM]	EC90 [4] [µM]	EC50 [5] [µM]	EC90 [5] [µM]	Ratio CC50/EC50 [6]	EC50 [7] [µM]	EC90 [7] [µM]	Ratio CC50/EC50 [8]	CC50 at 96 h [9] [µM]	Activity [10] [%]	Activity [11] [%]	Activity [12] [%]	Activity [13] [%]	Activity [14] [%]	EC50 [15] [µM]	Activity [16] [%]	EC50 [17] [µM]
NC(=O)c1ncn([C@@H]2O[C@H](CO)[C@@H](O)[C@H]2O)n1 [RIBAVIRIN]	66	77	1.4	47	107	52	123	1.8	69	122	1.1	95	–	–	–	–	–	–	–	–
O=C(Nc1ncc([N+](=O)[O-])s1)c1ccccc1O [TIZOXANIDE]	74	25	67	1.1	18	2	35	46	0.15	0.94	167	92	7	0	12	8	0	0.15	0	–
C[C@@]1(O)[C@H](O)[C@@H](CO)O[C@H]1n1ccc(N)nc1=O	> 300	> 300	>158	1.9	6.1	2.2	8.9	>136	2	9	>150	> 300	–	13	–	–	10	–	9	–
CC(=O)Oc1ccccc1C(=O)Nc1ncc([N+](=O)[O-])s1 [NITAZOXANIDE]	68	38	57	1.2	17	1.5	26	65	0.16	1.2	238	97	–	–	–	–	–	–	–	0.13
